{
  "source": "patent EP0340709A1",
  "about": "“(3-Chloro-methyl phenyl)ethyl amines, processes for their production and their use” (BASF Aktiengesellschaft, priority 1988, dated 1989)",
  "test_system": "breitblättrigew unerwünschte Pflanzen",
  "experiment": "Greenhouse herbicide test, pre- and post-emergence treatment",
  "type": "in vivo",
  "settings": "2,0 kg/ha a.S., Nachauflaufverfahren bzw. Vorauflaufverfahren, 2 bis 4 Wochen",
  "excerpt": "Die herbizide Wirkfung der (3-Chlor-2-methylphenylethylamine der Formel I ließ sich durch Gewächshausversuche zeigen: Zur Aufzucht der Testpflanzen dienten Plastikblumentöpfe mit 300 cm³ Inhalt und lehmigem Sand mit etwa 3 % Humus als Substrat. Die Samen der Testpflanzen wurden nach Arten getrennt flach eingesät.\nBei Vorauflaufbehandlung wurden die aufbereiteten Wirkstoffe unmittelbar danach auf die Erdoberfläche aufgebracht. Sie wurden hierbei in Wasser als Verteilungsmittel suspendiert oder emulgiert und mittels fein verteilender Düsen gespritzt. Nach dem Aufbringen der Mittel wurden die Gefäße leicht beregnet, um Keimung und Wachstum in Gang zu bringen. Danach wurden die Gefäße mit durchsichtigen Plastikhauben abgedeckt, bis die Pflanzen angewaschsen waren. Diese Abdeckung fördert ein gleichmäßiges Keimen der Testpflanzen, sofern dies nicht durch die Wirkstoffe beeinträchtigt wird. Die Aufwandmengen betrugen 2,0 kg/ha.\nZum Zwecke der Nachauflaufbehandlung wurden die Testpflanzen je nach Wuchsform erst bis zu einer Wuchshöhe von 3 bis 15 cm angezüchtet und erst dann behandelt. Die Testpflanzen wurden dafür entweder direkt gesät und in den gleichen Gefäßen aufgezogen oder sie wurden als Keimpflanzen getrennt gezüchtet und einige Tage vor der Behandlung in die Versuchsgefäße verpflanzt. Die Aufwandmengen für die Nachauflaufbehandlung betrugen 2,0 kg Wirkstoff/ha. […]",
  "data": [
    {"smiles": "Cc1c(Cl)cccc1CCNC(=O)c1ccccc1", "note": "[Beispiel 3, N-Benzoyl-3-chlor-2-methylphenethylamin]", "values": [
      {"measurement": "herbizide Wirkung (Bekämpfung breitblättriger unerwünschter Pflanzen)", "value": "sehr gut"}
    ]}
  ]
}
